For data set [1], the system named is human leukemia cell lines with MLL translocations (MV4;11, KOPN-8, THP-1, MonoMac6). In words: MTT viability assay in MLL leukemia cell lines. The class given is cell-based. The following applies: in words.
Data set [2] concerns non-MLL leukemia cell lines (Kasumi-1, ME-1). In words: MTT viability assay in non-MLL leukemia cell lines. The class given is cell-based, human. The following applies: Kasumi-1 (AML1-ETO), ME-1 (CBFβ-SMMHC). (Formazan colour is commonly taken as a measure of viable cells.)
Data set [3] deals with mouse bone marrow transduced with MLL-AF9. In words: MTT viability assay, transduced mouse bone marrow. The format is cell-based. From the text:
(§1) Effects of thienopyrimidine compounds on mouse bone marrow transduced with MLL-AF9 and MLL-ENL.

Data set [4] relates to mouse bone marrow transduced with MLL-ENL. Nature of the data set: MTT viability assay, transduced mouse bone marrow. The class given is cell-based.
Description: as §1

Data set [5] has as its system mouse bone marrow transduced with E2A-HLF. In words: MTT viability assay, transduced mouse bone marrow (negative control). The class given is cell-based.
Data set [6] has as its system THP-1 leukemia cells. In words: Differentiation of THP-1 cells, CD11b by flow cytometry. The class given is cell-based, human. From the text:
Thienopyrimidine and benzodiazepine compounds induce differentiation of the MLL leukemia cells.
Background: Flow cytometry measures light scatter and fluorescence of single cells or particles in a stream.

Data set [7] concerns Hoxa9 and Meis1 expression. In words: qRT-PCR of MLL downstream targets in THP-1 cells.
Data set [8] deals with T1, menin-MLL interaction (Homo sapiens (Human), UniProt O00255). The following applies: 50 μM and 25 μM compound, vs DMSO control.
A short description of data set [9]: Solubility (stated in words). The class given is physicochemical. The following applies: relative to Compound 1, in words.
Data set [10] relates to human leukemia cell lines with MLL translocations (MV4;11, ML-2, KOPN-8, Karpas 45). In words: ATP-based luminescence cell viability assay in MLL leukemia cell lines. The following applies: range over MLL leukemia cell lines.
In data set [11] the test system is Hep-G2 (liver) cell line. In words: MTT viability assay, liver cell line.
In data set [12] the test system is HK-2 (kidney) cell line. In words: MTT viability assay, kidney cell line.
Data set [13] addresses T1, menin-MLL interaction. Nature of the data set: Fluorescence polarization (FP) competition assay with fluorescein-labeled MLL peptide.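 Also: Read-out is fluorescence anisotropy of fluorescein-labeled MLL peptide bound to menin, inhibitors displace the peptide and lower anisotropy.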 The format is binding. (Fluorescence polarisation rises when a labelled molecule tumbles more slowly, as on binding a larger partner.)
Data set [14] deals with T1, menin-MLL interaction. In words: HTRF (TR-FRET) assay, His-tagged menin and biotinylated MLL peptide. The format is binding. The following applies: Table 3.
Data set [15] concerns MV4;11 cells (MLL-AF4). Nature of the data set: Annexin V/PI staining flow cytometry.
Data set [16] deals with THP-1 cells (MLL-AF9). Nature of the data set: Annexin V/PI staining flow cytometry.
Data set [17] deals with Hoxa9 promoter. Nature of the data set: Luciferase reporter assay in HEK293 cells transfected with MLL-AF9.
[18] abbreviates: Table 3, NA = no activity, read-out: IC50 in FP assay with FLSN-MLL.

Entries after “also recorded” stand apart in the source; their conditions may differ. Where two headings read alike, the source gives them in different places. Where only a bound is given, the exact number is not on record here.

Usually GI50 stands for the concentration at which growth is held to half of that of the control. Low readings indicate more potent growth inhibition, high ones less potent growth inhibition. A word on the IC50: it is the point on the concentration scale where inhibition reaches its midpoint.

T1 sequence (O00255 whole entry): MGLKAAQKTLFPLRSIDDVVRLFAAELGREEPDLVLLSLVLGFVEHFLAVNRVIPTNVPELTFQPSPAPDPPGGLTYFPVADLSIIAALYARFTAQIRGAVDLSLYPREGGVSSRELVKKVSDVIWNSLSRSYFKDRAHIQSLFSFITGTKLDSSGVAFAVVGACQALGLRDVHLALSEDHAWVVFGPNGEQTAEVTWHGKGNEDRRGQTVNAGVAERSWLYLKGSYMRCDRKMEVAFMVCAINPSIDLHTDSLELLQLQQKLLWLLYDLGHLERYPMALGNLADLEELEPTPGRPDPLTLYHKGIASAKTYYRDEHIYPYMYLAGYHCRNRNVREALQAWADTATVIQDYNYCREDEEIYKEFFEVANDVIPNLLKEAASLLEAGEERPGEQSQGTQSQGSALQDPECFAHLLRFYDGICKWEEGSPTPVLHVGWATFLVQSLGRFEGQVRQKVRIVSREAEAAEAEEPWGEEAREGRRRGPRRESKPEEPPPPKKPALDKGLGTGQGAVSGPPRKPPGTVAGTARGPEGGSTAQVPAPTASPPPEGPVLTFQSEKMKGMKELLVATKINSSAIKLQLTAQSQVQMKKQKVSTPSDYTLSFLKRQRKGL

In the case of `CCCc1cc2c(N3CCN(C4=NCC(C)(C)S4)CC3)ncnc2s1` [Compound 70], the “growth inhibition of MLL leukemia cells” value in data set [1] is given as “Very effective growth inhibition”. Further, the “effect on growth of non-MLL leukemia cell lines” value in [2] was “no effect on the cell growth”. Also, the “inhibition of cell growth” value was “substantial inhibition of cell growth” in data set [3], “substantial inhibition of cell growth” in data set [4] and “no significant inhibition of cell growth” in [5]. Further, the “expression of CD11b on the cell surface” value in data set [6] is on record as “increased expression of CD11b”. In data set [7], the “expression level of Hoxa9 and Meis1” value is given as “Downregulation”. The “inhibition of the menin-MLL interaction in cells (co-IP)” value (shortened to “inhibition of the menin-MLL interaction”) in [8] is “effectively inhibit”.
In the case of `CCc1cc2c(N3CCN(c4nnc(CC)s4)CC3)ncnc2s1` [Compound 4], in [9], the solubility result is on record as “improved solubility”. For the same molecule, the GI50 in data set [10] lay in the range of 7 to 25 µM. The “toxicity in viability assay” value in data set [11] is given as “no substantial signs of toxicity”; in data set [11] (listed as Compounds 4) it was “no signs of substantial toxicity”; in data set [12] it was “no substantial signs of toxicity”; in data set [12] (listed as Compounds 4), “no signs of substantial toxicity”.
Consider `CC(C)c1cc2c(N3CCN(C4=NCC(C)(C)S4)CC3)ncnc2s1` [Compound 67], for which the half-inhibitory concentration (IC50) in [13] (Table 2, FP assay, read-out: IC50) amounted to 0.65 µM. Moreover, the “in vitro activity in FP assay relative to parent Compound 1” value in data set [13] (in words) was “more potent activity”. In data set [6], the “expression of CD11b on the cell surface” value is on record as “increased expression of CD11b”. Further, the “inhibition of the menin-MLL interaction” value in [8] is reported as “effectively inhibit”.
On to `CC(=O)N1c2ccccc2NC2=C(C(=O)CC(c3ccc(C(C)(C)C)cc3)C2)C1c1cccnc1` (stereo not drawn) [Compound 32], for which the IC50 in [13] (setting [18]) is 13 µM; in data set [13] (re-tested by FP and HTRF, read-out: IC50 for inhibition of the menin-MLL interaction), 13 µM; in data set [14], 7 µM. For the same molecule, the “growth inhibition of MLL leukemia cells” value in data set [1] is on record as “substantial growth inhibition; also recorded: strongly inhibited growth”. Also, the “expression of CD11b on the cell surface” value in [6] was “increased expression of CD11b”. Besides, the “toxicity in viability assay” value in data set [11] and in [12] was “no signs of substantial toxicity” throughout. Besides, the apoptotic cells in data set [15] (25 μM) is listed as over 20%; in data set [16] (50 μM), “about 20%”. The dead cells is listed as over 20% in data set [15] (25 μM) and over 40% in data set [16] (50 μM). In addition, the “induction of apoptosis and cell death” value is “substantial apoptosis and cell death” in data set [15] (25 μM and 50 μM, in words); “substantial apoptosis and cell death” in data set [16] (25 μM and 50 μM, in words). In addition, in data set [17], the “transactivation of the Hoxa9 promoter” value is recorded as “effectively inhibit; also recorded: dose dependent inhibition”. For the same molecule, the “inhibition of the menin-MLL interaction” value in data set [8] is “effectively inhibit”.
As to `O=C1CC(c2ccc3c(c2)OCO3)CC2=C1C(c1ccncc1)Nc1ccccc1N2` (stereo not drawn) [Compound 39], the IC50 in data set [13] (setting [18]) came to 230 µM. Moreover, the “growth inhibition of MLL leukemia cells” value in data set [1] is listed as “no effect; also recorded: no growth inhibition”. Besides, the “transactivation of the Hoxa9 promoter” value in [17] is “No effect”.

The values are drawn from US8993552B2, “Compositions and methods for treatment of leukemia” (The Regents of The University of Michigan, priority 2009, dated 2015).
